Experimental data: PubChem BioAssay (NCI)
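GI50 marks 50% less growth. At the TGI there is no net growth.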

Tests used:
Test in all cases: NCI anticancer screen, dose series, 384-well format
[1] = tested on: A498 renal
[2] = tested on: A549 NSCLC
[3] = tested on: ACHN renal
[4] = tested on: BT-549 breast
[5] = tested on: CAKI-1 renal
[6] = tested on: COLO 205 colon
[7] = tested on: DU-145 prostate
[8] = tested on: EKVX NSCLC
[9] = tested on: HCC-2998 colon
[10] = tested on: HCT-116 colon
[11] = tested on: HCT-15 colon
[12] = tested on: HL-60(TB) leukemia
[13] = tested on: HOP-62 NSCLC
[14] = tested on: HOP-92 NSCLC
[15] = tested on: HS 578T breast
[16] = tested on: HT29 colon
[17] = tested on: IGROV1 ovarian
[18] = tested on: KM12 colon
[19] = tested on: LOX IMVI melanoma
[20] = tested on: M14 melanoma
[21] = tested on: MALME-3M melanoma
[22] = tested on: MCF7 breast
[23] = tested on: MDA-MB-231 breast
[24] = tested on: MDA-MB-435 melanoma
[25] = tested on: MDA-MB-468 breast
[26] = tested on: MOLT-4 leukemia
[27] = tested on: NCI-H226 lung
[28] = tested on: NCI-H23 lung
[29] = tested on: NCI-H322M lung
[30] = tested on: NCI-H460 NSCLC
[31] = tested on: NCI-H522 lung
[32] = tested on: NCI/ADR-RES ovarian
[33] = tested on: OVCAR-3 ovarian
[34] = tested on: OVCAR-4 ovarian
[35] = tested on: OVCAR-5 ovarian
[36] = tested on: OVCAR-8 ovarian
[37] = tested on: PC-3 prostate
[38] = tested on: RPMI-8226 leukemia
[39] = tested on: RXF 393 renal
[40] = tested on: SF-268 CNS
[41] = tested on: SF-295 CNS
[42] = tested on: SF-539 CNS
[43] = tested on: SK-MEL-28 melanoma
[44] = tested on: SK-MEL-5 melanoma
[45] = tested on: SK-OV-3 ovarian
[46] = tested on: SN12C renal
[47] = tested on: SNB-19 CNS
[48] = tested on: SNB-75 CNS
[49] = tested on: SR leukemia
[50] = tested on: T-47D breast
[51] = tested on: TK-10 renal
[52] = tested on: U251 glioblastoma
[53] = tested on: UACC-257 melanoma
[54] = tested on: UACC-62 melanoma

## Clc1ccc(N2CCC(N3CCCC3)CC2)cc1-c1nc2ccccc2[nH]1
[1]
  GI50: 14.4 µM
  TGI: 27.6 µM
[2]
  GI50: 17.2 µM
  TGI: 32.3 µM
[3]
  GI50: 16.6 µM
  TGI: 30.8 µM
[4]
  GI50: 8.67 µM
  TGI: 20.9 µM
[5]
  GI50: 16.9 µM
  TGI: 33.4 µM
[6]
  GI50: 14.3 µM
  TGI: 27.6 µM
[7]
  GI50: 15.3 µM
  TGI: 32.5 µM
[8]
  GI50: 14.2 µM
  TGI: 28.1 µM
[9]
  GI50: 12.5 µM
  TGI: 25.3 µM
[10]
  GI50: 11.7 µM
  TGI: 24.7 µM
[11]
  GI50: 3.84 µM
  TGI: 14.1 µM
[12]
  GI50: 12.3 µM
  TGI: 25 µM
[13]
  GI50: 16.1 µM
  TGI: 29.8 µM
[14]
  GI50: 18.4 µM
  TGI: 32.8 µM
[15]
  GI50: 14.8 µM
  TGI: 28.1 µM
[16]
  GI50: 10.9 µM
  TGI: 23.6 µM
[17]
  GI50: 15.5 µM
  TGI: 29.5 µM
[18]
  GI50: 14.8 µM
  TGI: 29.1 µM
[19]
  GI50: 16.5 µM
  TGI: 30.2 µM
[20]
  GI50: 18 µM
  TGI: 32 µM
[21]
  GI50: 13 µM
  TGI: 25.8 µM
[22]
  GI50: 12.1 µM
  TGI: 25.4 µM
[23]
  GI50: 17 µM
  TGI: 31.2 µM
[24]
  GI50: 17.1 µM
  TGI: 30.9 µM
[25]
  GI50: 14.1 µM
  TGI: 27.3 µM
[26]
  GI50: 16.5 µM
  TGI: 30.3 µM
[27]
  GI50: 15.2 µM
  TGI: 28.6 µM
[28]
  GI50: 14.1 µM
  TGI: 27.7 µM
[29]
  GI50: 14.3 µM
  TGI: 32 µM
[30]
  GI50: 17.2 µM
  TGI: 31.4 µM
[31]
  GI50: 17.7 µM
  TGI: 31.6 µM
[32]
  GI50: 15.4 µM
  TGI: 32.5 µM
[33]
  GI50: 14.6 µM
  TGI: 28 µM
[34]
  GI50: 11.9 µM
  TGI: 25.9 µM
[35]
  GI50: 15.8 µM
  TGI: 30.1 µM
[36]
  GI50: 16.7 µM
  TGI: 31.1 µM
[37]
  GI50: 15.1 µM
  TGI: 30.5 µM
[38]
  GI50: 16.1 µM
  TGI: 29.7 µM
[39]
  GI50: 15.1 µM
  TGI: 28.6 µM
[40]
  GI50: 16.3 µM
  TGI: 30.1 µM
[41]
  GI50: 17.8 µM
  TGI: 31.8 µM
[42]
  GI50: 16.9 µM
  TGI: 30.9 µM
[43]
  GI50: 14.9 µM
  TGI: 28.3 µM
[44]
  GI50: 4.01 µM
  TGI: 16 µM
[45]
  GI50: 14.1 µM
  TGI: 27.5 µM
[46]
  GI50: 11.8 µM
  TGI: 24.5 µM
[47]
  GI50: 18.2 µM
  TGI: 37 µM
[48]
  GI50: 16.9 µM
  TGI: 31 µM
[49]
  GI50: 11.8 µM
  TGI: 24.2 µM
[50]
  GI50: 13.9 µM
  TGI: 27.4 µM
[51]
  GI50: 12.4 µM
  TGI: 25 µM
[52]
  GI50: 16.9 µM
  TGI: 30.7 µM
[53]
  GI50: 2 µM
  TGI: 4.78 µM
[54]
  GI50: 13.5 µM
  TGI: 26.6 µM
